Experimental data: ChEMBL document CHEMBL1121596, “Metabolic beta-hydroxylation and N-oxidation of N'-nitrosonornicotine” (J Med Chem, 1980)

Species: Rattus norvegicus
Test: Rate of formation of compound by F-344 rat liver microsomes
Assay type: ADME

Structure (SMILES)	Rate [nmol/min/mg]
O=C(CCCO)c1cccnc1	0.4
O=NN1CCCC1c1ccc[n+]([O-])c1 (stereo not given)	0.57
O=NN1CCC(O)C1c1cccnc1 (stereo not given)	< 0.01
O=NN1CC(O)CC1c1cccnc1 (stereo not given)	< 0.01
OC1CCC(c2cccnc2)O1 (stereo not given)	0.76
